# Paper PMC8151276, “An Integrated Approach toward NanoBRET Tracers for Analysis of GPCR Ligand Engagement” (Molecules, 2021)
# What was measured:
# Format in all cases: binding
# CXCR4 = biological target: T1, CXCR4 (Homo sapiens, UniProt P61073); assay: NanoBRET screen HiBiT-CXCR4 in HEK293
# T1 construct: purchased Promega (in-house HiBiT-GPCR construct library, NanoBRET)
# Method: (§1) Each tracer candidate was screened across the entire library of HiBiT-GPCR constructs using NanoBRET as the detection modality. As depicted in Figure 4A, the specificity of interactions was evaluated through decrease in BRET due to competitive displacement of a bound tracer by excess parental compound. Each tracer was analyzed for binding to each HiBiT-GPCR fusion in the absence and in the presence of competing parental compound. Briefly, HEK293 cells were transfected with HiBiT-GPCR constructs diluted into promoterless DNA to reduce expression and maximize translocation to the cell surface. Each tracer candidate was then screened at concentrations of 1 μM and 0.1 μM across cells expressing these fusions. Cells were treated for 1.5 h with tracer either alone or in the presence of 20 μM competing parental compound (i.e., control). BRET was measured upon addition of purified LgBiT and subsequent complementation with HiBiT genetically fused to a GPCR. The specificity of interactions was assessed through a decrease in BRET signal due to competitive displacement of the bound tracer. To further gauge the robustness of these interactions, the fold response over the control (i.e., BRETtracer/BRETcontrol) was calculated. We chose a 1.5-fold response, which translates to ≥7-fold signal over noise as the minimal threshold required to score an interaction as positive. […]. Below we highlight the screening results obtained for our exemplary fluorescent tracers based on Clozapine, Amitriptyline and AZD1283.
# (§2) HiBiT-GPCR DNA constructs were diluted in 10 mM Tris pH 8 to a final concentration of 0.01 μg/μL, arrayed in 96-well plates and stored at −20 °C. For transfection, HEK293 cells were suspended in Opti-MEM (without phenol red) supplemented with 2% fetal bovine serum (Seradigm) and 100 units/mL penicillin–streptomycin (Gibco) at a final concentration of 220,000 cells/mL and dispensed into white 96-well plates at 90 μL/well. Subsequent transfections and screens were carried using an Agilent Bravo Automated Liquid Handling Platform. First, the 96-well HiBiT DNA arrays were diluted 25-fold in Opti-MEM (without serum or phenol red) to a final concentration of 0.0004 μg/μL and 20 μL of the diluted DNAs were transferred into new 96-well plates. Next, promoterless carrier DNA (1 μg/μL) was diluted 25-fold (0.04 μg/μL) and then dispensed into the diluted arrays at 20 μL/well. Following brief mixing, Viafect transfection reagent (Promega) diluted 16-fold into Opti-MEM was dispensed into the plates at 40 μL/well. After mixing by pipetting, plates were incubated for 10 min on the pipetting station deck. The DNA-transfection reagent complexes were then added to plates containing cells. To facilitate the screen, 10 μL of DNA-transfection reagent complexes were added in duplicates to the top 4 and bottom 4 rows, resulting in two identical 48-well arrays per plate. Plates with transfected cells were incubated for 18–20 h at 37 °C/5% CO2. A screen of each tracer across the entire library using two different concentrations requires duplicate plates of transfected cells. Depending on the number of tracers being screened, transfections can be scaled up using the same ratios. The next day, for each tracer, four 20× screening solutions in tracer dilution buffer (Promega) were prepared: two duplicates at final concentration of 20 μM and two duplicates at a final concentration of 2 μM. A competing unmodified compound was added to one of each duplicate at a final concentration of 400 μM. The four resulting solutions were diluted 4-fold in Opti-MEM without serum or phenol red to generate 5× solutions (5 µM and 0.5 µM tracer +/− 100 μM competing compound). To screen the library, a BioTek MultiFlo FX liquid dispenser was used to dispense 22.5 µL of tracer solution to the top 4 rows and 22.5 µL tracer + competing compound solution to the 4 bottom rows. Plates were briefly mixed on an orbital shaker and incubated for 1.5 h at room temperature. […]
# ADORA2B = biological target: T2, ADORA2B (Homo sapiens, UniProt P29275); assay: NanoBRET screen HiBiT-ADORA2B in HEK293
# T2 construct: purchased Promega (in-house HiBiT-GPCR construct library, NanoBRET)
# T2 sequence (P29275 1-332): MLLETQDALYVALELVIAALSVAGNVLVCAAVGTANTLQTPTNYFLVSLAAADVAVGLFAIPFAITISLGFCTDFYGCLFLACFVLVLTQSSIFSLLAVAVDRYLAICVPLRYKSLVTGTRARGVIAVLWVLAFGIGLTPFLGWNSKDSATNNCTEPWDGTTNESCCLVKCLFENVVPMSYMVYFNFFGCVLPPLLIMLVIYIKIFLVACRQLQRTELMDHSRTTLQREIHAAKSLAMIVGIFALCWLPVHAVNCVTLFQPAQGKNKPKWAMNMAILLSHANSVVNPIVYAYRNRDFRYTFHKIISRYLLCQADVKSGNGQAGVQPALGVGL
# Method: as §1, §2
# MTNR1B = biological target: T3, MTNR1B (Homo sapiens, UniProt P49286); assay: NanoBRET screen HiBiT-MTNR1B in HEK293
# T3 construct: purchased Promega (in-house HiBiT-GPCR construct library, NanoBRET)
# T3 sequence (P49286 1-362): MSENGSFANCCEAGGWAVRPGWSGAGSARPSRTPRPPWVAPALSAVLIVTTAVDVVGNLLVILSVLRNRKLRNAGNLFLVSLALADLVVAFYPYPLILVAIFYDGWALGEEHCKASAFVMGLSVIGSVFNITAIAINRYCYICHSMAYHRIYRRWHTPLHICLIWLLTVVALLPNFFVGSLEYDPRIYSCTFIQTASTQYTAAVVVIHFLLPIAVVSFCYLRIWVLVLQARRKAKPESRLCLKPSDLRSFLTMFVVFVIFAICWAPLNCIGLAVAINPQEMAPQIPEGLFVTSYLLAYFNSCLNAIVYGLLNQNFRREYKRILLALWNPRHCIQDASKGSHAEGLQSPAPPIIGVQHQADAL
# Method: as §1, §2
# T1 sequence (P61073 whole entry): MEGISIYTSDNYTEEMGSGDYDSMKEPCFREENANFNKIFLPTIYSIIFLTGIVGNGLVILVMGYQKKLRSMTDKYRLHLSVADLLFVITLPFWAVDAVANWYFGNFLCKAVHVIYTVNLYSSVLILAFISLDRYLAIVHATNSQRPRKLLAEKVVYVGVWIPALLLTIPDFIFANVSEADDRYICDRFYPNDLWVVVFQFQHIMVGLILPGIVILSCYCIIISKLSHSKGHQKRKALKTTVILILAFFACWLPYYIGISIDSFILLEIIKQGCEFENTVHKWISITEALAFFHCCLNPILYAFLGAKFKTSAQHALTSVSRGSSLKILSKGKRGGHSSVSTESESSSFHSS
SMILES,"NanoBRET Fold Response (CXCR4; CXCR4, tracer 0.1μM)","NanoBRET Fold Response (CXCR4; CXCR4, tracer 1μM)","NanoBRET Fold Response (ADORA2B; ADORA2B, tracer 0.1μM)","NanoBRET Fold Response (ADORA2B; ADORA2B, tracer 1μM)","NanoBRET Fold Response (MTNR1B; MTNR1B, tracer 0.1μM)","NanoBRET Fold Response (MTNR1B; MTNR1B, tracer 1μM)","NanoBRET Fold Response (CXCR4; CXCR4, 0.1μM tracer)","NanoBRET Fold Response (CXCR4; CXCR4, 1μM tracer)","NanoBRET Fold Response (ADORA2B; ADORA2B, 0.1μM tracer)","NanoBRET Fold Response (ADORA2B; ADORA2B, 1μM tracer)","NanoBRET Fold Response (MTNR1B; MTNR1B, 0.1μM tracer)","NanoBRET Fold Response (MTNR1B; MTNR1B, 1μM tracer)",further results
O=C(CCc1ccc2n1[B-](F)(F)[N+]1=C(c3ccc[nH]3)C=CC1=C2)NCCOCCOCCNC(=O)OCCOCCN1CCN(C2=Nc3ccccc3Sc3ccccc32)CC1 [Quetiapine-a-2-NB590],0.98,0.97,0.80,1.02,1.11,0.92,,,,,,,
Cc1cc2c(s1)Nc1ccccc1N=C2N1CCN(CCCNC(=O)CCOCCOCCOCCOCCNC(=O)CCc2ccc3n2[B-](F)(F)[N+]2=C(c4ccc[nH]4)C=CC2=C3)CC1 [Olanzapine-a-2-NB590],1.04,1.10,0.92,1.04,0.96,0.94,,,,,,,
CN1CCN(C2=Nc3cc(Cl)ccc3Nc3ccc(CNC(=O)CCOCCOCCOCCOCCNC(=O)CCc4ccc5n4[B-](F)(F)[N+]4=C(c6ccc[nH]6)C=CC4=C5)cc32)CC1 [Clozapine-b-2-NB590],,,,,,,1.03,1.07,1.07,0.99,0.95,1.05,
COc1ccc2c(n1)c(CCNC(C)=O)cn2CCNC(=O)CCc1ccc2n1[B-](F)(F)[N+]1=C(c3ccc[nH]3)C=CC1=C2 [Azamelatonin-1-NB590],,,,,,,,,,,,,NanoBRET Fold Response (CXCR4; 0.1μM tracer): 1.11; NanoBRET Fold Response (CXCR4; 1μM tracer): 0.82; NanoBRET Fold Response (ADORA2B; 0.1μM tracer): 0.49; NanoBRET Fold Response (ADORA2B; 1μM tracer): 0.60; NanoBRET Fold Response (MTNR1B; 0.1μM tracer): 1.07; NanoBRET Fold Response (MTNR1B; 1μM tracer): 1.12
O=C(CCc1ccc2n1[B-](F)(F)[N+]1=C(c3ccc[nH]3)C=CC1=C2)NCc1ccc(C(=O)NCCOCCOCCNCC(O)COc2cccc3ccccc23)cc1 (stereo not drawn) [Propranolol-3-NB590],,,,,,,,,,,,,"NanoBRET Fold Response (CXCR4; CXCR4, 0.1μM): 1.04; NanoBRET Fold Response (CXCR4; CXCR4, 1μM): 1.02; NanoBRET Fold Response (ADORA2B; ADORA2B, 0.1μM): 1.10; NanoBRET Fold Response (ADORA2B; ADORA2B, 1μM): 0.95; NanoBRET Fold Response (MTNR1B; MTNR1B, 0.1μM): 0.96; NanoBRET Fold Response (MTNR1B; MTNR1B, 1μM): 0.98"
O=C(CCOCCOCCOCCOCCNC(=O)CCc1ccc2n1[B-](F)(F)[N+]1=C(c3ccc[nH]3)C=CC1=C2)NCCCN1CCN(C2=Nc3cc(Cl)ccc3Nc3ccccc32)CC1 [Clozapine-a-2-NB590],,,,,,,1.04,0.85,1.01,0.67,1.06,0.97,
